Assay results: publication PMC2908543, “Uropathogenic Escherichia coli Modulates Immune Responses and Its Curli Fimbriae Interact with the Antimicrobial Peptide LL-37” (PLoS Pathogens, 2010)
“Also recorded” adds a separate entry of the source.

What was measured:
CsgA fiber formation = assay: CsgA fiber formation, Thioflavin T, confocal microscopy; assay type: biochemical, Escherichia coli
Description: CsgA-His6 and CsgG, a lipoprotein that is required for CsgA secretion, were overexpressed in LSR12 (C600::csg). The purification procedure of recombinant CsgA-His6 was performed as previously described with some modifications. The filtrate was incubated with nickel-nitrilotriacetic acid (Ni-NTA) agarose (Invitrogen) for 1 h at 4°C with shaking, centrifuged at 200×g for 5 min and transferred to a polyprep chromatography column (Bio-Rad, Hercules, CA, USA). To confirm protein identity of CsgA-His6, the isolated protein was prepared and subjected to SDS-PAGE as described below, and thereafter the protein was transferred from the gel to a polyvinylidene fluoride (PVDF) membrane (Invitrogen) at 160 mA for 60 min. The band of 15 kDa, corresponding to the molecular weight of CsgA-His6, was excised from the membrane stained with Coomassie Blue and analysed with N-terminal sequence analysis as has been described. Since it has previously been shown that CsgA-His6 has the same polymerizing properties as wild-type CsgA [59], we refer to CsgA-His6 as CsgA.
Recombinant monomeric CsgA was mixed with equimolar LL-37, sLL-37 or VIP and 20 µM ThT, and incubated over night at 37°C, washed twice, and suspended in 10 mM Kpi, pH 7.2 before mounting in ProLong Gold antifade mounting medium (Invitrogen). Images were acquired on a Leica TCS SP5 confocal microscope using a 20× objective. Fluorescence intensity was quantified using ImageJ software. The difference in fluorescence intensity of CsgA with and without peptides was calculated and corrected for the contribution of fluorescence from the peptides themselves.

wild-type curli = assay: Precipitation of LL-37 with wild-type curli, Western blot of supernatant; assay type: binding, Escherichia coli; conditions: 0.1 µM LL-37 in PBS with 5 µM wild-type curli, 1 h at 37°C
Description: The cellulose-deficient isogenic mutant of E. coli No. 12 was used to purify wild-type curli, as has been described. Colonies were harvested and suspended in 0.05 M Tris-buffer by using an omnimixer. Bacterial cell debris was discarded by centrifugation at 8000×g for 15 min and curli protein was precipitated by adding 0.1 M MgCl2 and 0.15 M NaCl. The aggregated curli were centrifuged at 16000×g for 15 min, and the pellet was dissolved in 10 mM TRIS, 1 mM EDTA, pH 7.5 with 2% 3-((3-cholamidopropyl)dimethylammonium)-1-propanesulfonate (CHAPS). After incubation for 45 min at 95°C, the solution was centrifuged at 20000×g for 10 min. The pellet containing curli was washed three times with water. Finally, curli were suspended in PBS and used for binding studies with LL-37.
LL-37 (0.1 µM in PBS) was mixed with 5 µM wild-type curli, or 5 µM recombinant polymerized CsgA. As control, the same concentration of LL-37 without curli or CsgA was utilized. The samples were incubated for 1 h at 37°C with shaking and centrifuged for 30 min at 10000×g. An aliquot of the supernatants was analyzed for the presence of LL-37 with Western blot.
Sample preparation and SDS-PAGE was carried out as described above and Western blot was performed as previously described. […]

polymeric CsgA = molecular target: T1, polymeric CsgA (Escherichia coli, UniProt P28307); assay: Surface plasmon resonance, polymeric CsgA; conditions: polymeric CsgA immobilized (7000 response units), 0.1 µM peptide, 20 µl/min for 3 min, HBS-EP, Biacore 3000; binding constants not determinable
T1 construct: made in house; host or cells: E. coli LSR12 (C600::csg), co-expressed with CsgG
T1 sequence (P28307 21-151): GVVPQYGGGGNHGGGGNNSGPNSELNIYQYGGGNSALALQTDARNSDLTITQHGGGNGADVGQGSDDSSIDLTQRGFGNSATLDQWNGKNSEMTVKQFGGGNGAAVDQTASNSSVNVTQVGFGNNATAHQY
Description: Binding analysis of LL-37 to both monomeric and polymeric CsgA was performed with surface plasmon resonance (Biacore 3000 instrument; Biacore AB, Uppsala, Sweden). Both monomeric and polymeric CsgA was immobilized on a CM5 sensor chip (Biacore AB) surface by amine coupling. The chip surface was normalized in 70% glycerol and lanes on the chip were activated with injection of 35 µL 0.05 M N-hydroxysuccinimide (NHS)/0.2 M N-ethyl-N′-[3-dimethylamino) propyl]carbodiimide (EDC). Polymeric or monomeric CsgA (1 µM in 10 mM sodium acetate, pH 4.5) was then immobilized on the chip to 7000 response units and 2000 response units, respectively. After immobilization, the lanes were subjected to 60 µL ethanolamine (1 M, pH 8.5) to deactivate remaining activated carboxylic groups. One lane, activated and deactivated, was used as negative control (without addition of CsgA). Standard Biacore HBS-EP (Biacore AB) was utilized as running buffer, and 0.1 µM LL-37, sLL-37 or VIP were injected at 20 µl/min for 3 min. The surface was regenerated after each cycle with 100 mM HCl.

monomeric CsgA = molecular target: T2, monomeric CsgA (Escherichia coli, UniProt P28307); assay: CsgA monomer stability, SDS-PAGE; assay type: biochemical; conditions: 10 µM CsgA, 20 h at 37°C, Coomassie Blue, seen already at molar ratio 16∶1 (CsgA∶LL-37)
T2 construct: made in house; host or cells: E. coli LSR12 (C600::csg), co-expressed with CsgG
T2 sequence (P28307 21-151): as above
Description: To confirm the inhibition of CsgA polymerization we sought to analyse the stability of the CsgA monomer in the absence and presence of LL-37. Freshly purified, monomeric CsgA (10 µM) was incubated for 20 h at 37°C without or with different concentrations of LL-37 and was subsequently separated by SDS-PAGE. After staining with Coomassie Blue, bands corresponding to LL-37 and/or CsgA in monomeric, dimeric or tetrameric form were visualized. When CsgA was incubated alone, monomers were not visible although sometimes dimers and/or tetramers could be observed. This finding indicates spontaneous formation of CsgA oligomers and/or larger polymers that can not migrate into the gel due to their size. […] This was already seen at a molar ratio of 16∶1 (CsgA∶LL-37). To exclude degradation of CsgA as a possible explanation for the lack of the gel band, polymerized CsgA was treated with 90% formic acid, dissolving polymeric CsgA into monomers. After this treatment, a band corresponding to monomeric CsgA was detectable in the gel (Figure 8A).
Samples were prepared in LDS (lithium dodecyl sulphate) sample buffer (4∶1) and incubated at 70°C for 10 min. Electrophoresis was performed using 4–12% Bis-tris NU-PAGE gels (Invitrogen) at 200 V for 35 min. Gels were stained with Coomassie Blue for 1 h and destained over night in 90% water, 8% methanol and 2% acetic acid (vol/vol/vol).

## CC[C@H](C)[C@H](NC(=O)[C@H](CCCCN)NC(=O)[C@H](CCC(=O)O)NC(=O)[C@H](CCCCN)NC(=O)[C@H](CO)NC(=O)[C@H](CCCCN)NC(=O)[C@H](CCCNC(=N)N)NC(=O)[C@H](Cc1ccccc1)NC(=O)[C@H](Cc1ccccc1)NC(=O)[C@H](CC(=O)O)NC(=O)CNC(=O)[C@H](CC(C)C)NC(=O)[C@@H](N)CC(C)C)C(=O)NCC(=O)N[C@@H](CCCCN)C(=O)N[C@@H](CCC(=O)O)C(=O)N[C@@H](Cc1ccccc1)C(=O)N[C@@H](CCCCN)C(=O)N[C@@H](CCCNC(=N)N)C(=O)N[C@H](C(=O)N[C@H](C(=O)N[C@@H](CCC(N)=O)C(=O)N[C@@H](CCCNC(=N)N)C(=O)N[C@H](C(=O)N[C@@H](CCCCN)C(=O)N[C@@H](CC(=O)O)C(=O)N[C@@H](Cc1ccccc1)C(=O)N[C@@H](CC(C)C)C(=O)N[C@@H](CCCNC(=N)N)C(=O)N[C@@H](CC(N)=O)C(=O)N[C@@H](CC(C)C)C(=O)N[C@H](C(=O)N1CCC[C@H]1C(=O)N[C@@H](CCCNC(=N)N)C(=O)N[C@H](C(=O)N[C@@H](CCC(=O)O)C(=O)N[C@@H](CO)C(=O)O)[C@@H](C)O)C(C)C)[C@@H](C)CC)C(C)C)[C@@H](C)CC [LL-37]
CsgA fiber formation; CsgA with equimolar peptide (1∶1), 20 µM ThT, 20 h at 37°C, CsgA alone = 1 arbitrary unit, corrected for peptide fluorescence, two experiments
  fluorescence relative to CsgA alone: 0.05 arbitrary units
CsgA fiber formation; molar ratio 1∶1, P = 0.007 versus sLL-37 and P = 0.011 versus VIP
  inhibition of CsgA fiber formation versus sLL-37 and VIP: significantly stronger than the effect of sLL-37; also recorded: evidently stronger for LL-37
wild-type curli
  LL-37 in supernatants after precipitation: pronounced decrease of LL-37 in supernatants; also recorded: the levels of LL-37 decreased in the supernatants
Polymeric CsgA
  binding / association and dissociation by SPR: higher association with CsgA than the control peptides; also recorded: stronger association and lower dissociation rates
Monomeric CsgA
  CsgA monomer band at 15 kDa in presence of LL-37: a band migrating at 15 kDa, the predicted size of monomeric CsgA, could be observed; also recorded: the CsgA monomer is visible after SDS-PAGE
